Measured values from article PMC4067310, “From Pan-Reactive KV7 Channel Opener to Subtype Selective Opener/Inhibitor by Addition of a Methyl Group” (PLoS ONE, 2014).
“And” between values parts separate entries of the source, which are not always exact repeats. Equal values may be shown once.

Experiments:
KV7.2 = biological target: T1, KV7.2 (Homo sapiens, UniProt O43526); experiment: Two-electrode voltage-clamp of KV7.2 expressed in Xenopus laevis oocytes; type: cell-based
T1 construct: expressed in transfected cells; host or cells: Xenopus laevis oocytes injected with cRNA (pGEM-HE vector)
Description: (§1) Point mutations were introduced using mutated oligonucleotide extension (PfuTurbo Polymerase, Stratagene, La Jolla, CA, USA) from a plasmid template harboring the cDNA of interest, digested with DpnI (Fermentas, St. Leon-Roth, Germany) and transformed into E.coli XL1 Blue cells. The construct was verified by complete DNA sequencing of the cDNA insert. cRNA was prepared from linearized human wild-type (WT) and mutant KV7 channels in the pGEM-HE vector using the T7 m-Message Machine kit (Ambion, Austin, TX, USA) according to the manufacturer's instructions.
(§2) Extraction of Xenopus laevis oocytes and injection of cRNA was performed as described previously. Oocytes were kept in Modified Barth's Saline (in mM: 88 NaCl, 1 KCl, 2.4 NaHCO3, 0.41 CaCl2, 0.82 MgSO4, 0.3 Ca(NO3)2, 15 HEPES, pH 7.4 supplemented with 100 U/mL penicillin and 100 µg/mL streptomycin) at 18°C, and currents were recorded after 2-7 days. The care of Xenopus laevis and the oocyte extraction procedure were performed according to national guidelines and approved by the Danish Animal Experiments Inspectorate.
(§3) KV7 currents in Xenopus laevis oocytes were recorded using two-electrode voltage-clamp at room temperature in Ringer buffer (in mM: 115 NaCl, 2.5 KCl, 1.8 CaCl2, 0.1 MgCl2, 10 HEPES, pH 7.4) as described previously. Data was acquired using pCLAMP 10.2 software (Molecular Devices, CA, USA) and analyzed using pCLAMP 10.2 and GraphPad Prism 4.0 (GraphPad Software Inc., CA, USA). Currents were elicited from a holding potential of −80 mV by 5 s steps to potentials between −100 and +50 mV in 10 mV increments, followed by a 2 s step to −120 mV.
SMB-1 was dissolved in dimethyl sulfoxide (DMSO) to obtain a concentrated stock solution. On the day of experiments the stock solution was thawed and diluted in Ringer buffer to the final concentrations. A concentration of 10 µM SMB-1 was used unless indicated otherwise. The final DMSO concentration never exceeded 0.1%.
Current – voltage (I–V) relationship curves were generated by normalizing the steady-state peak current measured at potentials between −100 and +50 mV to the current measured at +50 mV in control recordings and plotting the values against the test potential.
The voltage-dependence of activation was determined from tail current analysis using the current measured immediately after the transient capacitive current after stepping to −120 mV from potentials between −100 mV and +50 mV. Data was normalized to extend from 0–1 and the tail current-voltage relationship was fitted to the Boltzmann equation: [drawing 1] (Equation\;1) where I max is the maximum tail current, I min is the minimum tail current, V0.5 is the potential for half maximal activation and k is the slope factor. A V0.5 was calculated for each individual experiment and statistical significance was estimated by paired two-tailed Student's t-test.
Activation kinetics for KV7.2 and KV7.2-W236L was determined by fitting the traces recorded at potentials between −40 and +40 mV to a double exponential function: [drawing 2] (Equation\;2) where I(t) is the current at time t, Ifast and Islow are the current amplitudes at infinite times, and τfast and τslow are the time constants of the fast and slow components, respectively.
For investigation of deactivation kinetics the tail current traces recorded at −120 mV when stepping from the channels' respective ∼V0.5 were fitted to a single exponential function (Eq. 3).
Dose-response curves from electrophysiological experiments were made by plotting the increase in steady state current at +50 mV expressed in percentages as a function of drug concentration. The data were then analyzed by non-linear regression and fitted to the equation for sigmoidal dose-response with variable slope: [drawing 4] (Equation\;4) where R1 is the initial response, R2 is the maximum response, X is the logarithm of the drug concentration and nH is the slope (Hill coefficient) of the curve.

[1] = test system: MDCK cell system expressing human MDR1 [ABCB1, P-glycoprotein (P-gp)]; experiment: Bidirectional permeability in MDR1-MDCK cells; type: in vitro ADME; conditions: judged from the efflux ratio in MDR1-MDCK cells
Description: (§4) The bidirectional permeability (Papp) of SMB-1 was examined in an MDCK cell system expressing human MDR1 [ABCB1, P-glycoprotein (P-gp)] as described previously. Permeation of the test compound from apical (A) to basal (B) direction or B to A direction was determined in triplicate over a 150-min incubation at 37°C. The efflux ratio was calculated as the ratio between Papp (B to A) and Papp (A to B). Free fraction of SMB-1 was determined using a standard equilibrium dialysis methodology with freshly isolated rat brain homogenate or plasma. Equilibrium dialysis was performed by incubating at 37°C for 5 h in triplicates.

[2] = test system: human MDR1 (ABCB1, P-glycoprotein); experiment: Bidirectional permeability in MDR1-MDCK cells; type: in vitro ADME; conditions: dog, MDCK-MDR1, 150-min incubation at 37°C
Description: as §4

KV7.2-L275V = biological target: T2, KV7.2-L275V (Homo sapiens, UniProt O43526, L275V); experiment: Two-electrode voltage-clamp of mutant KV7.2-L275V in Xenopus laevis oocytes; type: cell-based; conditions: 10 µM SMB-1, +50 mV, n = 4; read-out: current amplitude, % of control
T2 construct: expressed in transfected cells; host or cells: Xenopus laevis oocytes injected with cRNA (pGEM-HE vector)
Description: as §1
as §2, with “The care of Xenopus laevis and the oocyte extraction procedure were performed according to national guidelines and approved by the Danish Animal Experiments Inspectorate.” left out
as §3, with “Currents were elicited from a holding potential of −80 mV by 5 s steps to potentials between −100 and +50 mV in 10 mV increments, followed by a 2 s step to −120 mV.” left out

KV7.2-L299V = biological target: T3, KV7.2-L299V (Homo sapiens, UniProt O43526, L299V); experiment: Two-electrode voltage-clamp of mutant KV7.2-L299V in Xenopus laevis oocytes; type: cell-based; conditions: 10 µM SMB-1, +50 mV, n = 4; read-out: current amplitude, % of control
T3 construct: expressed in transfected cells; host or cells: Xenopus laevis oocytes injected with cRNA (pGEM-HE vector)
Description: as §1
as §2, with “The care of Xenopus laevis and the oocyte extraction procedure were performed according to national guidelines and approved by the Danish Animal Experiments Inspectorate.” left out
as §3, with “Currents were elicited from a holding potential of −80 mV by 5 s steps to potentials between −100 and +50 mV in 10 mV increments, followed by a 2 s step to −120 mV.” left out

T1 sequence (O43526 whole entry): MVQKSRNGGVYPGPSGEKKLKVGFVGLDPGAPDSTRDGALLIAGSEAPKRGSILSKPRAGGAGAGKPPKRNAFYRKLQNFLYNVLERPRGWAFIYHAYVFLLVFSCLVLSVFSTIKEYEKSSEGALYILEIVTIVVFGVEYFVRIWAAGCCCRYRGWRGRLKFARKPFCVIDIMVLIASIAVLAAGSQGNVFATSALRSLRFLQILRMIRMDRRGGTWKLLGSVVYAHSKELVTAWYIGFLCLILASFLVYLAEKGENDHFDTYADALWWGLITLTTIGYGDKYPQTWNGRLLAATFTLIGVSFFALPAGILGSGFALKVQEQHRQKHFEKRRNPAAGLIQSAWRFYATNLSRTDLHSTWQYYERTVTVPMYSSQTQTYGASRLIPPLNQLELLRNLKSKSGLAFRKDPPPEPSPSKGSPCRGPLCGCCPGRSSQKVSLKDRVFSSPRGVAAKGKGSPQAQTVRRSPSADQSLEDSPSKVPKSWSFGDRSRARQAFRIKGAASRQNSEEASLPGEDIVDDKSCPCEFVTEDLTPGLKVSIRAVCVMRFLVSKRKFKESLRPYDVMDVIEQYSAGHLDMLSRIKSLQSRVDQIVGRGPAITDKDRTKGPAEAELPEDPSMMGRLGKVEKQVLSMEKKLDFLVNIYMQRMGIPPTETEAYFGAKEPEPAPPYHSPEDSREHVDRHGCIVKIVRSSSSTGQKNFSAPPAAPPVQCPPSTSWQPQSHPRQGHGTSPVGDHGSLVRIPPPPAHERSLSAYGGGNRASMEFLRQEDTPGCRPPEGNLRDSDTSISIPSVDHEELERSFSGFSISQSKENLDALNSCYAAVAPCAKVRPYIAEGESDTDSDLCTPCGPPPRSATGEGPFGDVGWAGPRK
T2 sequence (O43526 whole entry L275V): as the sequence (O43526 whole entry) above, with L275V counted along it
T3 sequence (O43526 whole entry L299V): as the sequence (O43526 whole entry) above, with L299V counted along it

SMILES: C[C@@H](c1ccc2c(c1)N(CC1CC1)CCO2)N(C)C(=O)/C=C/c1ccccc1F [SMB-1, (E)-N-[(S)-1-(4-Cyclopropylmethyl-3,4-dihydro-2H-1,4-benzoxazin-6-yl)-ethyl]-3-(2-fluoro-phenyl)-N-methyl-acrylamide]
- effect on τact_fast (KV7.2; 10 µM): did not affect
- remaining activity at 10 µM (KV7.2; 10 µM SMB-1, +50 mV, n = 9, read-out: current amplitude, % of control): 81.7 ± 3.1%
- effect on τact_slow (KV7.2; 10 µM, at −20 mV and above): increased
- τdeact, deactivation time constant in presence of compound (KV7.2; 10 µM, control 20.2±1.4 ms, n = 7, p<0.001): 37.3 ± 3.3 ms
- V0.5, voltage-dependence of activation in presence of compound (KV7.2; 10 µM, control −22.5±2.2 mV, n = 8, p<0.05): -18.0±2.7 mV
- IC50 (KV7.2; current amplitude at +50 mV, 0.4, 2, 10 and 50 µM, n = 5): ~7.4 µM and 7.4 µM
- substrate for the efflux transporter P-gp [1]: not identified as a substrate
- Papp at 150 min ([2]; triplicate, read-out: membrane permeability (Papp)): 2.5 ± 0.3 ×10⁻⁶ cm/s
- efflux ratio at 150 min ([2]; read-out: efflux ratio, Papp (B to A) / Papp (A to B)): 0.7
- remaining activity at 10 µM (KV7.2-L275V): 90.4 ± 4.1%
- remaining activity at 10 µM (KV7.2-L299V): 69.3 ± 5.6%
